# Biological target: REV-ERBα LBD (Homo sapiens, UniProt P20393, DEL324-422)
# Experiment: biochemical
# Conditions: FRET assay; 6xHistag-REV-ERBα LBD with FITC-labeled SMRT corepressor peptide; read-out: REVERBα (Agonism of REV-ERBα, EC50)
# Outline: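 TR-FRET corepressor recruitment: 4 nM His-tagged human REV-ERBα LBD (residues 281-614 Δ324-422, or 381-579), 1 nM Tb-anti-His antibody and 400 nM FITC-SMRT peptide in pH 7.4 phosphate buffer with DTT; ligands in triplicate, 2 h at 4° C. 520/495 nm ratio fitted to sigmoidal dose-response for EC50.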
# REV-ERBα LBD, sequence (P20393 with tags, fused parts or gaps DEL324-422): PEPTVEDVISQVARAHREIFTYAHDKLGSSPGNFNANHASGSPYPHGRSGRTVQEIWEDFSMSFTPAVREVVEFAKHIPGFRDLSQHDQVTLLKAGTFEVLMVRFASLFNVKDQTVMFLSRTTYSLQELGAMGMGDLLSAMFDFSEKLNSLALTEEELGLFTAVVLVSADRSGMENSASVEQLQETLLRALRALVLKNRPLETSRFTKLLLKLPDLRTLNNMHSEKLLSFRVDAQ
# REV-ERBα LBD, sequence (Q9Y618 2335-2356 partner limits assumed): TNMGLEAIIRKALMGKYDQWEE
row,Structure (SMILES),EC50
1,"CC(NS(=O)(=O)C1CC1)c1cn(CC(C)(C)C)c2cc(-c3ccc(C(F)(F)F)nc3)c(F)cc12 (stereo not drawn) [Compound 70, N-(1-(5-fluoro-1-neopentyl-6-(6-(trifluoromethyl)pyridin-3-yl)-1H-indol-3-yl)ethyl)cyclopropanesulfonamide]",0.1 to 1 µM
2,"CC(NS(=O)(=O)C1CC1)c1cn(CC(C)(C)C)c2cc(-c3cccnc3C(F)F)c(F)cc12 (stereo not drawn) [Compound 65, N-(1-(6-(2-(difluoromethyl)pyridin-3-yl)-5-fluoro-1-neopentyl-1H-indol-3-yl)ethyl)cyclopropanesulfonamide]",< 0.1 µM
3,"Cc1ccnc(C(F)F)c1-c1ccc2c([C@H](NS(=O)(=O)C3CC3)C(F)F)cn(CC(C)(C)C)c2c1 [Compound 128, (S)—N-(1-(6-(2-(difluoromethyl)-4-methylpyridin-3-yl)-1-neopentyl-1H-indol-3-yl)-2,2-difluoroethyl)cyclopropanesulfonamide]",< 0.1 µM
4,"Cc1ccnc(C(F)F)c1-c1cc2c(cc1F)c([C@H](NS(=O)(=O)C1CC1)C(F)F)cn2CC(C)(C)C [Compound 127, N-((1S)-1-(6-(2-(difluoromethyl)-4-methylpyridin-3-yl)-5-fluoro-1-neopentyl-1H-indol-3-yl)-2,2-difluoroethyl)cyclopropanesulfonamide]",< 0.1 µM
5,"COc1cccc(C#N)c1-c1ccc2c([C@H](NS(=O)(=O)C3CCC3)C(F)(F)F)cn(CC(C)(C)C)c2c1 [Compound 6, (S)—N-(1-(6-(2-cyano-6-methoxyphenyl)-1-neopentyl-1H-indol-3-yl)-2,2,2-trifluoroethyl)cyclobutanesulfonamide]",0.1 to 1 µM
6,"Nc1ccc(-c2nc3c(cc2F)c([C@H](NS(=O)(=O)C2CC2)C(F)F)cn3C2CCC2)c(C(F)(F)F)n1 [Compound 180, (S)—N-(1-(6-(6-amino-2-(trifluoromethyl)pyridin-3-yl)-1-cyclobutyl-5-fluoro-1H-pyrrolo[2,3-b]pyridin-3-yl)-2,2-difluoroethyl)cyclopropanesulfonamide]",< 0.1 µM
7,"Cc1ccncc1-c1cc2c(cc1F)c(C(C)NS(=O)(=O)C1CC1)cn2CC(C)(C)C (stereo not drawn) [Compound 71, N-(1-(5-fluoro-6-(4-methylpyridin-3-yl)-1-neopentyl-1H-indol-3-yl)ethyl)cyclopropanesulfonamide]",< 0.1 µM
8,"CC(C)(C)Cn1cc([C@H](NS(=O)(=O)C2CC2)C(F)(F)F)c2cc(F)c(-c3cccnc3C(F)(F)F)cc21 [Compound 8, (S)—N-(2,2,2-trifluoro-1-(5-fluoro-1-neopentyl-6-(2-(trifluoromethyl)pyridin-3-yl)-1H-indol-3-yl)ethyl)cyclopropanesulfonamide]",0.1 to 1 µM
9,"Cc1ccccc1-c1ccc2c([C@H](NS(=O)(=O)C3CC3)C(F)F)cn(CC(C)(C)C)c2c1 [Compound 15, (S)—N-(2,2-difluoro-1-(1-neopentyl-6-(o-tolyl)-1H-indol-3-yl)ethyl)cyclopropanesulfonamide]",< 0.1 µM
10,"CC(C)(C)Cn1cc([C@H](NS(=O)(=O)C2CC2)C(F)F)c2ccc(-c3c(C#N)cccc3C(F)F)cc21 [Compound 103, (S)—N-(1-(6-(2-cyano-6-(difluoromethyl)phenyl)-1-neopentyl-1H-indol-3-yl)-2,2-difluoroethyl)cyclopropanesulfonamide]",< 0.1 µM
11,"CC(C)(C)Cn1cc([C@H](NS(=O)(=O)C2CC2)C(F)F)c2cc(F)c(-c3c(C(F)F)ccnc3C#N)cc21 [Compound 122, N-((1S)-1-(6-(2-cyano-4-(difluoromethyl)pyridin-3-yl)-5-fluoro-1-neopentyl-1H-indol-3-yl)-2,2-difluoroethyl)cyclopropanesulfonamide]",< 0.1 µM
12,"CC(C)(C)Cn1cc([C@H](NS(=O)(=O)C2CC2)C(F)F)c2ccc(-c3ccncc3C(F)(F)F)cc21 [Compound 102, (S)—N-(2,2-difluoro-1-(1-neopentyl-6-(3-(trifluoromethyl)pyridin-4-yl)-1H-indol-3-yl)ethyl)cyclopropanesulfonamide]",< 0.1 µM
13,"CC(C)(C)Cn1cc([C@H](NS(=O)(=O)C2CC(F)C2)C(F)F)c2ccc(-c3ccccc3C(F)(F)F)cc21 (stereo partly drawn) [Compound 22, (S)—N-(2,2-difluoro-1-(1-neopentyl-6-(2-(trifluoromethyl)phenyl)-1H-indol-3-yl)ethyl)-3-fluorocyclobutane-1-sulfonamide]",< 0.1 µM
14,"Cc1cnc(C(F)(F)F)c(-c2nc3c(cc2F)c([C@H](NS(=O)(=O)C2CC2)C(F)F)cn3CC(C)(C)C)c1 [Compound 142, (S)—N-(2,2-difluoro-1-(5-fluoro-6-(5-methyl-2-(trifluoromethyl)pyridin-3-yl)-1-neopentyl-1H-pyrrolo[2,3-b]pyridin-3-yl)ethyl)cyclopropanesulfonamide]",< 0.1 µM

# Now from value to molecule:
row,EC50,Structure (SMILES)
1,< 0.1 µM,"Cc1nccc(C(F)(F)F)c1-c1cc2c(cc1F)c([C@H](NS(=O)(=O)C1CC1)C(F)F)cn2CC(C)(C)C [Compound 130, N-((1S)-2,2-difluoro-1-(5-fluoro-6-(2-methyl-4-(trifluoromethyl)pyridin-3-yl)-1-neopentyl-1H-indol-3-yl)ethyl)cyclopropanesulfonamide]"
2,< 0.1 µM,"CC(C)(C)Cn1cc([C@H](NS(=O)(=O)C2CC2)C(F)F)c2cc(F)c(-c3ncc(C#N)cc3C(F)(F)F)cc21 [Compound 138, (S)—N-(1-(6-(5-cyano-3-(trifluoromethyl)pyridin-2-yl)-5-fluoro-1-neopentyl-1H-indol-3-yl)-2,2-difluoroethyl)cyclopropanesulfonamide]"
3,< 0.1 µM,"CC(C)(C)Cn1cc([C@H](NS(=O)(=O)C2CCC2)C(F)F)c2cc(F)c(-c3ccc(F)cc3C(F)(F)F)cc21 [Compound 170, (S)—N-(2,2-difluoro-1-(5-fluoro-6-(4-fluoro-2-(trifluoromethyl)phenyl)-1-neopentyl-1H-indol-3-yl)ethyl)cyclobutanesulfonamide]"
4,< 0.1 µM,"Cc1cnc(C(F)(F)F)c(-c2cc3c(cc2F)c([C@H](NS(=O)(=O)C2CC2)C(F)F)cn3CC(C)(C)C)c1 [Compound 141, (S)—N-(2,2-difluoro-1-(5-fluoro-6-(5-methyl-2-(trifluoromethyl)pyridin-3-yl)-1-neopentyl-1H-indol-3-yl)ethyl)cyclopropanesulfonamide]"
5,< 0.1 µM,"CC(C)(C)Cn1cc([C@H](NS(=O)(=O)C2CC2)C(F)F)c2cc(F)c(-c3ccc(=O)[nH]c3C(F)(F)F)cc21 [Compound 169, (S)—N-(2,2-difluoro-1-(5-fluoro-1-neopentyl-6-(6-oxo-2-(trifluoromethyl)-1,6-dihydropyridin-3-yl)-1H-indol-3-yl)ethyl)cyclopropanesulfonamide]"
6,< 0.1 µM,"CC(C)(C)Cn1cc([C@H](NS(=O)(=O)C2CC2)C(F)F)c2cc(F)c(-c3c(F)ccnc3C(F)(F)F)cc21 [Compound 131, N-((1S)-2,2-difluoro-1-(5-fluoro-6-(4-fluoro-2-(trifluoromethyl)pyridin-3-yl)-1-neopentyl-1H-indol-3-yl)ethyl)cyclopropanesulfonamide]"
7,< 0.1 µM,"CC(C)(C)Cn1cc([C@H](NS(=O)(=O)C2CC2)C(F)F)c2cc(F)c(-c3cnccc3C(F)(F)F)cc21 [Compound 113, (S)—N-(2,2-difluoro-1-(5-fluoro-1-neopentyl-6-(4-(trifluoromethyl)pyridin-3-yl)-1H-indol-3-yl)ethyl)cyclopropanesulfonamide]"
